Where “and” joins values, the source holds several entries; their conditions need not be identical. Identical values can stand only once. Like-named read-outs stand apart in the source and are kept apart here.
Key:
[1] = target: T1, EGFR L858R/T790M (LRTM) kinase domain (Homo sapiens, UniProt P00533, L858R/T790M); test: HTRF KinEASE-TK kinase activity assay; format: biochemical; settings: for linking coefficients: limits estimated from LRTM IC50 values; for Linking coefficient E: LRTM IC50, upper limit; for activity: LRTM, read-out: percent inhibition
T1 construct: The EGFR kinase domain (residues 696–1022) was cloned into pTriEx; 6xHis (N, cleaved yes); GST (N, cleaved yes); made in house; host or cells: SF9 insect cells, baculovirus

WT EGFR kinase domain = target: T2, WT EGFR kinase domain (Homo sapiens, UniProt P00533); test: HTRF KinEASE-TK kinase activity assay; format: biochemical
T2 construct: The EGFR kinase domain (residues 696–1022) was cloned into pTriEx; 6xHis (N, cleaved yes); GST (N, cleaved yes); made in house; host or cells: SF9 insect cells, baculovirus

[2] = target: T3, EGFR L858R/T790M/C797S (LRTMCS) kinase domain (Homo sapiens, UniProt P00533, C797S/L858R/T790M); test: HTRF KinEASE-TK kinase activity assay; format: biochemical
T3 construct: The EGFR kinase domain (residues 696–1022) was cloned into pTriEx; 6xHis (N, cleaved yes); GST (N, cleaved yes); made in house; host or cells: SF9 insect cells, baculovirus

[3] = test system: EGFR phosphorylation (pY1068) in H1975 cells; test: Western blot; format: cell-based, human; settings: H1975, 6 h
Protocol: H1975, H3255, H3255GR and HCC827 lung adenocarcinoma cells (obtained from Dr. Pasi Jänne in Dana-Farber Cancer Institute, 2022) were cultured in RPMI 1640 media (Corning, 1004-CV) supplemented with 10% FBS (Tissue Culture Biologicals, 35-010-CV) and 1% penicillin-streptomycin (P/S, Corning, 30-002-CI). All cell lines were tested negative for Mycoplasma using Myco-Sniff-Rapid™ Mycoplasma Luciferase Detection Kit Plus PCR Primer Set (MP biomedicals, 0930504-CF) and were passaged and/or used for no longer than 4 weeks for all experiments H1975 and HCC-827 cells were seeded in 6-well plates with 400,000 cells per well and incubated overnight. H3255 and H3255GR cells were seeded in 12-well plates with 200,000 cells per well and were grown to confluency after 48 h. Culture medium was removed, cells washed with PBS, and lysed with lysis buffer containing 5 M NaCl, 1 M TRIS pH 8.0, 10% SDS, 10% Triton X-100 and a tablet of protease and phosphatase inhibitor. Protein lysate concentration was analyzed using Pierce BCA kit (ThermoFisher, 23225). Protein samples (10 µg) were resolved on hand-cast Criterion Tris-HCl protein gels. Primary antibodies used; phospho-EGFR (Tyr1068; #2234, 1:1,000), EGFR (#4267; 1:1,000), phospho-AKT (Ser473; #4060, 1:1,000), AKT (#9272, 1:1,000), phospho-ERK1/2 (Thr202/Tyr204; #4370, 1:1,000), and ERK1/2 (#4695, 1:1,000) antibodies; were purchased from Cell Signaling Technology. Secondary Goat anti-rabbit IgG starbright blue 700 (Biorad, 64484700) and Anti-tubulin hFAB Rhodamine Tubulin (Bio-Rad, 64512248). Western blots were visualized with the ChemiDoc MP imager (Bio-Rad) utilizing the Image Lab Touch Software (version 2.4.0.03). All Western blot images are representatives of at least 3 independent replicate experiments.

[4] = target: T4, EGFR L858R (LR) kinase domain (Homo sapiens, UniProt P00533, L858R); test: HTRF KinEASE-TK kinase activity assay; format: biochemical
T4 construct: The EGFR kinase domain (residues 696–1022) was cloned into pTriEx; 6xHis (N, cleaved yes); GST (N, cleaved yes); made in house; host or cells: SF9 insect cells, baculovirus

[5] = Table S1, ATP 100 µM, read-out: IC50, LRTM
[6] = enzyme 10 nM, ATP 100 µM, read-out: Biochemical EGFR IC50, WT
[7] = enzyme 0.02 nM, ATP 100 µM, read-out: Biochemical EGFR IC50, LRTMCS
[8] = enzyme 0.02 nM, ATP 100 µM, read-out: Biochemical EGFR IC50, LRTM
[9] = enzyme 0.1 nM, ATP 100 µM, read-out: Biochemical EGFR IC50, LR

O=C1Nc2c(cccc2C(=O)Nc2nccs2)Nc2ccccc21 [Compound 11]
IC50 [1, 5]: ≥ 10000 nM

O=C1c2cc(F)ccc2Nc2ccccc2N1Cc1ccccc1 [Compound 9, reference compound]
IC50 (WT EGFR kinase domain; [6]): > 1000 nM
IC50 [2, 7]: 39 to 59 nM
IC50 [1, 8]: 52 nM

CSc1nc(-c2cccc(CN3C(=O)c4ccccc4Nc4ccc(F)cc43)c2)c(-c2ccnc(NC(C)=O)c2)[nH]1 [Compound 1]
suppression of EGFR phosphorylation [3]: limited ability to suppress phosphorylation
IC50 (WT EGFR kinase domain; [6]): > 10000 nM
IC50 (WT EGFR kinase domain; read-out: IC50, WT): ≥ 1000 nM
activity at 3.181 pM ([2]; LRTMCS, [Inhibitor] 0.00318089 nM, read-out: percent inhibition): 103%
activity at 7.783 pM ([2]; LRTMCS, [Inhibitor] 0.00778314 nM, read-out: percent inhibition): 94.6%
activity at 19.04 pM ([2]; LRTMCS, [Inhibitor] 0.0190441 nM, read-out: percent inhibition): 99.4%
activity at 46.6 pM ([2]; LRTMCS, [Inhibitor] 0.0465979 nM, read-out: percent inhibition): 97.2%
activity at 0.000114018 µM ([2]; LRTMCS, [Inhibitor] 0.114018 nM, read-out: percent inhibition): 94.5%
activity at 0.000278983 µM ([2]; LRTMCS, [Inhibitor] 0.278983 nM, read-out: percent inhibition): 83%
activity at 0.000682626 µM ([2]; LRTMCS, [Inhibitor] 0.682626 nM, read-out: percent inhibition): 67.9%
activity at 0.00167028 µM ([2]; LRTMCS, [Inhibitor] 1.67028 nM, read-out: percent inhibition): 39.3%
activity at 0.0040869 µM ([2]; LRTMCS, [Inhibitor] 4.0869 nM, read-out: percent inhibition): 19.2%
activity at 0.01 µM ([2]; LRTMCS, [Inhibitor] 10 nM, read-out: percent inhibition): 9.7%
activity at 1.3 pM ([2]; LRTMCS, [Inhibitor] […], read-out: percent inhibition): 102%
IC50 [2, 7]: > 10000 nM
IC50 ([2]; read-out: IC50, LRTMCS): ≥ 1000 nM
activity at 3.181 pM ([4]; LR, [Inhibitor] 0.00318089 nM, read-out: percent inhibition): 103%
activity at 7.783 pM ([4]; LR, [Inhibitor] 0.00778314 nM, read-out: percent inhibition): 94.6%
activity at 19.04 pM ([4]; LR, [Inhibitor] 0.0190441 nM, read-out: percent inhibition): 99.4%
activity at 46.6 pM ([4]; LR, [Inhibitor] 0.0465979 nM, read-out: percent inhibition): 97.2%
activity at 0.000114018 µM ([4]; LR, [Inhibitor] 0.114018 nM, read-out: percent inhibition): 94.5%
activity at 0.000278983 µM ([4]; LR, [Inhibitor] 0.278983 nM, read-out: percent inhibition): 83%
activity at 0.000682626 µM ([4]; LR, [Inhibitor] 0.682626 nM, read-out: percent inhibition): 67.9%
activity at 0.00167028 µM ([4]; LR, [Inhibitor] 1.67028 nM, read-out: percent inhibition): 39.3%
activity at 0.0040869 µM ([4]; LR, [Inhibitor] 4.0869 nM, read-out: percent inhibition): 19.2%
activity at 0.01 µM ([4]; LR, [Inhibitor] 10 nM, read-out: percent inhibition): 9.7%
activity at 1.3 pM ([4]; LR, [Inhibitor] […], read-out: percent inhibition): 102%
IC50 [4, 9]: 1300 ± 100 nM
IC50 ([4]; read-out: IC50, LR): ≥ 1000 nM
IC50 [1, 5]: ≥ 1000 nM
IC50 [1, 8]: > 10000 nM
linking coefficients [1]: > 2e+07 M⁻¹

CCc1nc(-c2cccc(NC(=O)c3cccc4c3NC(=O)c3ccccc3N4)c2)c(-c2ccnc(NC(C)=O)c2)[nH]1 [Compound 3]
suppression of EGFR phosphorylation [3]: also effective in H1975 cells, however to a lesser extent than 4
IC50 (WT EGFR kinase domain; [6]): < 10 nM
activity ([2]; LRTMCS, [Inhibitor] 1.3e-5 nM, read-out: percent inhibition): 95.4% and 96.9% and 90.5%
activity ([2]; LRTMCS, [Inhibitor] 3.18e-5 nM, read-out: percent inhibition): 86.7% and 90.8% and 88.7%
activity ([2]; LRTMCS, [Inhibitor] 7.78e-5 nM, read-out: percent inhibition): 65.8% and 67.4% and 61.5%
activity at 190.4 fM ([2]; LRTMCS, [Inhibitor] 0.000190441 nM, read-out: percent inhibition): 34.4%
activity at 466 fM ([2]; LRTMCS, [Inhibitor] 0.000465979 nM, read-out: percent inhibition): 15.1%
activity at 1.14 pM ([2]; LRTMCS, [Inhibitor] 0.00114018 nM, read-out: percent inhibition): 9.97%
activity at 2.79 pM ([2]; LRTMCS, [Inhibitor] 0.00278983 nM, read-out: percent inhibition): 5.05%
activity at 6.826 pM ([2]; LRTMCS, [Inhibitor] 0.00682626 nM, read-out: percent inhibition): 3.24%
activity at 16.7 pM ([2]; LRTMCS, [Inhibitor] 0.0167028 nM, read-out: percent inhibition): 1.45%
IC50 [2, 7]: 0.063 ± 0.005 nM
IC50 ([2]; read-out: IC50, LRTMCS): 0.051 to 0.064 nM
activity ([4]; LR, [Inhibitor] 1.3e-5 nM, read-out: percent inhibition): 95.4% and 96.9% and 90.5%
activity ([4]; LR, [Inhibitor] 3.18e-5 nM, read-out: percent inhibition): 86.7% and 90.8% and 88.7%
activity ([4]; LR, [Inhibitor] 7.78e-5 nM, read-out: percent inhibition): 65.8% and 67.4% and 61.5%
activity at 190.4 fM ([4]; LR, [Inhibitor] 0.000190441 nM, read-out: percent inhibition): 34.4%
activity at 466 fM ([4]; LR, [Inhibitor] 0.000465979 nM, read-out: percent inhibition): 15.1%
activity at 1.14 pM ([4]; LR, [Inhibitor] 0.00114018 nM, read-out: percent inhibition): 9.97%
activity at 2.79 pM ([4]; LR, [Inhibitor] 0.00278983 nM, read-out: percent inhibition): 5.05%
activity at 6.826 pM ([4]; LR, [Inhibitor] 0.00682626 nM, read-out: percent inhibition): 3.24%
activity at 16.7 pM ([4]; LR, [Inhibitor] 0.0167028 nM, read-out: percent inhibition): 1.45%
IC50 [4, 9]: 1.2 ± 0.09 nM
Linking coefficient E ([1]; ATP fragment 5, allosteric fragment 10): < 0.88 M⁻¹
Linking coefficient E ([1]; ATP fragment 6, allosteric fragment 10): < 0. 51 M-1
activity ([1]; [Inhibitor] 1.3e-5 nM): 80.3% and 89% and 81.1%
activity ([1]; [Inhibitor] 3.18e-5 nM): 69.3% and 75.7% and 76.3%
activity ([1]; [Inhibitor] 7.78e-5 nM): 34.1% and 36.2% and 33.7%
activity ([1]; [Inhibitor] 0.000190441 nM, 190.4 fM): 16.3% and 13.5%
activity ([1]; [Inhibitor] 0.000465979 nM, 466 fM): 5.63% and 5.16%
activity ([1]; [Inhibitor] 0.00114018 nM, 1.14 pM): 4.05% and 3.39%
activity ([1]; [Inhibitor] 0.00278983 nM, 2.79 pM): 3.12% and 3.28%
activity ([1]; [Inhibitor] 0.00682626 nM, 6.826 pM): 2.4% and 2.45%
IC50 ([1]; Table S1, read-out: IC50, LRTM): 0.051 to 0.064 nM and 0.051 to 0.059 nM
IC50 [1, 8]: 0.051 ± 0.005 nM
linking coefficients [1]: 0.5 to 1.0 M⁻¹
